{
  "source": "patent US20190275040A1",
  "about": "“COMPOUNDS AND METHODS FOR TREATING OR PREVENTING ALZHEIMER'S DISEASE” (YALE UNIVERSITY, priority 2016, published 2019)",
  "key": {"[1]": {"tested_on": "Aβo-induced suppression of LTP in hippocampal slices", "test": "Hippocampal CA3-CA1 LTP in acute brain slices with or without Aβo", "type": "cell-based, mouse", "conditions": "WT slices", "protocol": "FIG. 3A depicts WT slices that were treated with either vehicle or Aβo 30 min prior to theta burst stimulation (TBS). The slope of the field excitatory postsynaptic potential (fEPSP) is plotted as a function of time. Data are graphed as mean±SEM (n=6-12). Inset, representative traces immediately before TBS and 60 min post-TBS (red) are superimposed. FIG. 3B depicts WT and Pyk2−/− brain slices in the absence of Aβo, plotted as in FIG. 3A. FIG. 3C depicts average fEPSPs at 50-60 min post-TBS plotted for the indicated conditions as mean±SEM (n=3-20). Where indicated, 500 nM PF719 kinase inhibitor was pre-incubated with WT slices for 60 min prior to addition of Aβo or vehicle for 30 min, and then TBS. One-way ANOVA, **, p<0.01.\nThe role of Pyk2 in Aβo-induced disruption of synaptic plasticity using hippocampal CA3 to CA1 LTP has also been evaluated, comparing WT and Pyk2−/− slices. […]\n400-μm coronal slices were prepared as described elsewhere herein and submerged in a recording chamber (BSC-PC, Warner Instruments) containing aCSF with 2.4 mM CaCl2 that was continuously oxygenated (95% O2, 5% CO2). […] Extracellular field excitatory post-synaptic potentials (fEPSPs) were recorded using a glass microelectrode (2-6 MS2) (4878, World Precision Instruments) filled with aCSF, and placed in the Stratum radiatum of CA1 neurons. […]"}, "[2]": {"tested_on": "primary hippocampal neurons", "test": "Dendritic spine motility in primary hippocampal neurons", "type": "cell-based, mouse", "conditions": "Aβo 24 hours; PF-719 1 μM, Y27632 10 μM", "excerpt": "FIG. 11A: Representative images of dendritic spine motility by standard deviation projection of time-lapse image. […] The standard deviation value for each pixel is shown by thermal color scale. […] FIG. 11B: Quantification of spine motility, expressed as % of changed area of spines with subtraction of changed area of dendritic shaft as background (changed area=(ΔAspine/Aspine×100)−(ΔAshaft/Ashaft×100)). […] Data are graphed as mean±SEM (n=7-8 coverslips from 3 different cultures). **p<0.01, ***p<0.001 by ANOVA, Tukey's multiple comparisons test.\nFIG. 18A: Representative images of dendritic spine motility by standard deviation projection of time stacks. […] To display the spine motility in time-lapse images, the time stack images over 5 min of each conditions were projected to standard deviation using Image J and color coated with thermal color scale. […] FIG. 18B: Quantification of spine motility, expressed as % of changed area of spines with subtraction of dendritic shaft area change (changed area=(ΔAspine/Aspine×100)−(ΔAshaft/Ashaft×100)). Mean±SEM (n=5 coverslips).\nTime-lapse images were acquired for 5 minutes with 10 second intervals in Tyrode's solution using 60× objective lens driven Volocity software. Time-lapse images (31 time frames over 5 min) were subjected to standard deviation (STD) projection to visualize spine motility in single image and colorized with thermal scale using ImageJ software (NIH). Quantitative measurements of spine motility by calculating the changed area at individual dendritic spines were conducted by using ImageJ software by an observer unaware of treatment group."}, "Fyn": {"molecular_target": "Fyn (Homo sapiens, UniProt P06241)", "sequence (P06241 whole entry, species assumed)": "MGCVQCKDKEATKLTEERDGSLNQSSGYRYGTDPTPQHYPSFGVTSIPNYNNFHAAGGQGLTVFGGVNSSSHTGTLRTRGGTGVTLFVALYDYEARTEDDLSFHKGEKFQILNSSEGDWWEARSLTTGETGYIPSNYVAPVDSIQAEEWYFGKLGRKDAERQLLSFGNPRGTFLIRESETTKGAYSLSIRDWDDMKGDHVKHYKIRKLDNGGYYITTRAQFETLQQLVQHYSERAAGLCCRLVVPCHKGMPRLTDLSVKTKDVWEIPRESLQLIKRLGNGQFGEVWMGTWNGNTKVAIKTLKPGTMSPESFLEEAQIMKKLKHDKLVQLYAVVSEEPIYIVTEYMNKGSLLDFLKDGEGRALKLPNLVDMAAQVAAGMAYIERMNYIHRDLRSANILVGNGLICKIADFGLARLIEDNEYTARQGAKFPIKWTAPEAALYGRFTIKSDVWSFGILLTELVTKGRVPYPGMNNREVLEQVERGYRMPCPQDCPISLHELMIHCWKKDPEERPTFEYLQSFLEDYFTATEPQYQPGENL", "conditions": "cited from earlier work"}, "FAK [3]": {"molecular_target": "T1, FAK (Homo sapiens, UniProt Q05397)", "T1 sequence (Q05397 whole entry, species assumed)": "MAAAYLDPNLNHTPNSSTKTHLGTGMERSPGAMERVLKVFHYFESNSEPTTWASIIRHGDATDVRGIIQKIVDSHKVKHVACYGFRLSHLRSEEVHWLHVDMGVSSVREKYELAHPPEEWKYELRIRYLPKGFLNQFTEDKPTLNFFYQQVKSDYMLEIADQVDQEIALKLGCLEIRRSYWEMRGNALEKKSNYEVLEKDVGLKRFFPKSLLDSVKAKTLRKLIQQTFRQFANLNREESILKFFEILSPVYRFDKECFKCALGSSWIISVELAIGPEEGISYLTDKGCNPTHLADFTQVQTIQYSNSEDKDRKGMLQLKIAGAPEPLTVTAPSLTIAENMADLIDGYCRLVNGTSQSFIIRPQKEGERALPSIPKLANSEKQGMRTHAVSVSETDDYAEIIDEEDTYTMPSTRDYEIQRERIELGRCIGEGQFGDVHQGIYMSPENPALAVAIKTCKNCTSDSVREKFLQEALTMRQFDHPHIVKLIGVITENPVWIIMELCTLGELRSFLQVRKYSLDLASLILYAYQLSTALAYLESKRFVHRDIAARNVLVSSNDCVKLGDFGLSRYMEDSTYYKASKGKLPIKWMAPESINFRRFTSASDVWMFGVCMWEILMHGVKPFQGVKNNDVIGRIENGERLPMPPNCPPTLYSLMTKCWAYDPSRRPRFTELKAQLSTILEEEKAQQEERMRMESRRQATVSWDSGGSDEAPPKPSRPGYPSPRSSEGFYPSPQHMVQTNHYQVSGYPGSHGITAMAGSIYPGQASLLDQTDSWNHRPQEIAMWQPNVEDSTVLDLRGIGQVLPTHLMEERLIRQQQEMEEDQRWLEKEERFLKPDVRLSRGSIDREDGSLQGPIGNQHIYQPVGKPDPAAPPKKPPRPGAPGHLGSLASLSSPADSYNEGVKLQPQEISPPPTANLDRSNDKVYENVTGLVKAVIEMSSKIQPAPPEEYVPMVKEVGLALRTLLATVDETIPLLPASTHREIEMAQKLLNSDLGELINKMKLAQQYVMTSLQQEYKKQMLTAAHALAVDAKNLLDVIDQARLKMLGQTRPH", "test": "FAK Ki and selectivity versus Pyk2", "type": "biochemical"}, "Pyk2": {"molecular_target": "Pyk2 (Homo sapiens, UniProt Q14289)", "sequence (Q14289 whole entry, species assumed)": "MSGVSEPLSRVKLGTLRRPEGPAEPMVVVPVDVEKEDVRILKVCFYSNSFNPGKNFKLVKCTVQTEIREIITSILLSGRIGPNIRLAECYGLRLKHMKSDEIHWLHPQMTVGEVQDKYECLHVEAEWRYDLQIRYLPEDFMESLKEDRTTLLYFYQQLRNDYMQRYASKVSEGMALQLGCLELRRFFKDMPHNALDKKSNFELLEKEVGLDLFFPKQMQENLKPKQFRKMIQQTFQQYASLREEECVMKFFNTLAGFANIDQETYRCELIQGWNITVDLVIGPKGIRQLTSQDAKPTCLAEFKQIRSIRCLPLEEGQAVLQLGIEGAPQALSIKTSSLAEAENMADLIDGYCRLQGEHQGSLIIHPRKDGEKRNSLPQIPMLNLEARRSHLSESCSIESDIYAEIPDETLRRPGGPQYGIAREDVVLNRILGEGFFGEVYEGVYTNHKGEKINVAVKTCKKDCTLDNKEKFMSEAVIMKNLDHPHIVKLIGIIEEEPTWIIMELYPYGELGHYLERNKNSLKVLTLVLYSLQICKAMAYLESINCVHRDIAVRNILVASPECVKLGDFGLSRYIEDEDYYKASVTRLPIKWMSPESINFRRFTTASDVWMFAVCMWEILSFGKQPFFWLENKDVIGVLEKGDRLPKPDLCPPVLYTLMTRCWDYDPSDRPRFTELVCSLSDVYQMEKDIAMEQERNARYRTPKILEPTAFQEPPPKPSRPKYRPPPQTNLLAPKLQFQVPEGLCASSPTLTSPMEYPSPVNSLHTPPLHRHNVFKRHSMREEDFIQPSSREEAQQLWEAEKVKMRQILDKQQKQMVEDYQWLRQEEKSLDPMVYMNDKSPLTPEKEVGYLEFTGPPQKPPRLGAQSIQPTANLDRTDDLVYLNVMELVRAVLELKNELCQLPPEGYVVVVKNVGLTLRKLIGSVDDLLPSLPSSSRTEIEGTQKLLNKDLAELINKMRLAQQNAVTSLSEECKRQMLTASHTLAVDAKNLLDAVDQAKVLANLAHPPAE", "test": "Pyk2 Ki of kinase inhibitors (CHEMBL & IUPHR-BPS database screen, Table 2)", "type": "biochemical", "conditions": "Pyk2 versus Fyn"}, "FAK [4]": {"molecular_target": "T1, FAK", "conditions": "cited from earlier work"}},
  "data": [
    {"smiles": "CCOc1ccc2nc(SCc3nc(N)nc(N4CCOCC4)n3)sc2c1", "note": "[PF-719, 4-(((6-ethoxybenzo[d]thiazol-2-yl)thio)methyl)-6-morpholino-1,3,5-triazin-2-amine]", "values": [
      {"measurement": "Aβo-induced suppression of LTP", "setting": "[1]; 500 nM, Aβo 30 min before TBS", "result": "protects these slices from Aβo-induced suppression"},
      {"measurement": "LTP without Aβo", "setting": "[1]; nM concentrations (500 nM, 60 min pre-incubation)", "result": "does not block LTP"},
      {"measurement": "Aβo-induced decrease in spine motility", "setting": "[2]", "result": "rescue fully the Aβo-induced decrease in spine motility"},
      {"measurement": "Ki", "setting": "Fyn", "result": "> 1000", "unit": "nM"},
      {"measurement": "selectivity Pyk2 versus FAK", "setting": "FAK [3]", "result": 30, "unit": "×"},
      {"measurement": "Inhibition Character", "setting": "Pyk2", "result": "Pyk2 selective"},
      {"measurement": "Ki", "setting": "FAK [4]", "result": 450, "unit": "nM"}
    ]}
  ]
}
